The source of these data is PMC5858870 (Environmental pollution (Barking, Essex : 1987), 2018).

Where two headings read alike, the source gives them in different places.

For series [1] the following is noted: for Whole-body conc D 50 High / Whole-body conc D 50 Med: day 50 (after depuration), wet weight, < = reporting limit; for Whole-body conc D 50 Med: medium dose.
In series [2] the test system is fish. The note with it: ref Kim et al. (2007); cited from earlier work.
Series [3] deals with male fathead minnow. The note with it: exposed to 40,000 ng/L (40 ng/mL); ref Niemuth and Klaper, 2015; cited from earlier work.
A short description of series [4]: Apparent half-life during depuration phase. The note with it: whole-body, apparent first order.
The test system of series [5] is mitochondrial respiration. The note with it: ref Schnellmann et al., 1990; Shim et al., 2016; cited from earlier work.
The conditions of series [6]: in vivo; cited from earlier work.
In series [7] the test system is carp. The note with it: carp (Catla catla) exposed; ref Muthuviveganandavel et al., 2013; cited from earlier work.
For series [8], the system named is rainbow trout. The note with it: relatively low concentrations in the range of ng/mL; ref Ashfield et al., 1998; cited from earlier work.
The mark [9] stands for this setting: day 32, high dose, nominal ratio 10×.
Setting [10] is: day 32, low dose, nominal ratio 0.3×.
[11] abbreviates: day 32, medium dose, nominal ratio 1×.
Setting [12] is: Chinook salmon (Oncorhynchus tshawytscha), juvenile, in vivo, 32 d.
Setting [13] is: Chinook salmon (Oncorhynchus tshawytscha), juvenile, in vivo, 50 d.

Consider `CN(C)CCC=C1c2ccccc2CCc2ccccc21` [Amitriptyline, reference compound], for which, in series [1] (setting [9]), the “WB conc. factor (lab / field) D 32 High” value is listed as 1.41. For the same compound, in series [1] (setting [10]), the “WB conc. factor (lab / field) D 32 Low” value is recorded as 0.19.
In the case of `CCOC(=O)C1=C(COCCN)NC(C)=C(C(=O)OC)C1c1ccccc1Cl` (centres unmarked) [Amlodipine, reference compound], the “WB conc. factor (lab / field) D 32 High” value in series [1] (setting [9]) came out at 19.5. Also, in series [1] (setting [10]), the “WB conc. factor (lab / field) D 32 Low” value came out at 1.15. Besides, the “WB conc. factor (lab / field) D 32 Med” value in series [1] (setting [11]) was found to be 1.12.
Regarding `CC[C@H]1OC(=O)[C@H](C)[C@@H](O[C@H]2C[C@@](C)(OC)[C@@H](O)[C@H](C)O2)[C@H](C)[C@@H](O[C@@H]2O[C@H](C)C[C@H](N(C)C)[C@H]2O)[C@](C)(O)C[C@@H](C)CN(C)[C@H](C)[C@@H](O)[C@]1(C)O` [Azithromycin, reference compound], the “WB conc. factor (lab / field) D 32 High” value in series [1] (setting [9]) was 17.1. Besides, the “WB conc. factor (lab / field) D 32 Low” value in series [1] (setting [10]) came out at 1.67. The “WB conc. factor (lab / field) D 32 Med” value in series [1] (setting [11]) was 1.03. Also, the “WB conc. factor (lab / field) D 50 Med” value in series [1] (day 50, medium dose) was 1.42.
`CNCCN1C(=O)[C@H](OC(C)=O)[C@H](c2ccc(OC)cc2)Sc2ccccc21` [Desmethyl-diltiazem]: in series [1] (setting [9]), the “WB conc. factor (lab / field) D 32 High” value worked out at 108. Besides, the “WB conc. factor (lab / field) D 32 Low” value in series [1] (setting [10]) is 4.67. In series [1] (setting [11]), the “WB conc. factor (lab / field) D 32 Med” value is 9.00. Also, in series [1], the “Whole-body conc D 50 High” value is given as 119 ng/g and the “Whole-body conc D 50 Med” value is 14.4 ng/g. For the same compound, the “WB conc. factor (lab / field) D 50 Med” value in series [1] (day 50, medium dose) is reported as 9.6.
`COc1ccc([C@@H]2Sc3ccccc3N(CCN(C)C)C(=O)[C@@H]2OC(C)=O)cc1` [Diltiazem, reference compound]: the “WB conc. factor (lab / field) D 32 High” value in series [1] (setting [9]) was found to be 63.8. Besides, in series [1] (setting [10]), the “WB conc. factor (lab / field) D 32 Low” value was determined as 10.7. Besides, the “WB conc. factor (lab / field) D 32 Med” value in series [1] (setting [11]) came to 6.56. Moreover, in series [1] (day 50, medium dose), the “WB conc. factor (lab / field) D 50 Med” value came to 2.37. Besides, the “96h LC50” value in series [2] is 15 µg/mL.
For the compound `CN(C)CCOC(c1ccccc1)c1ccccc1` [Diphen hydramine, reference compound], the “WB conc. factor (lab / field) D 32 High” value in series [1] (setting [9]) stood at 5.37. Moreover, the “WB conc. factor (lab / field) D 32 Low” value in series [1] (setting [10]) turned out to be 0.67. In series [1] (setting [11]), the “WB conc. factor (lab / field) D 32 Med” value was 0.43.
For the compound `CNCCC(Oc1ccc(C(F)(F)F)cc1)c1ccccc1` (centres unmarked) [Fluoxetine, reference compound], the “WB conc. factor (lab / field) D 32 High” value in series [1] (setting [9]) was 4.00. In addition, the “WB conc. factor (lab / field) D 32 Low” value in series [1] (setting [10]) was found to be 0.29. Also, the “WB conc. factor (lab / field) D 32 Med” value in series [1] (setting [11]) stood at 0.21. Besides, the “WB conc. factor (lab / field) D 50 Med” value in series [1] (day 50, medium dose) stood at 0.19.
Regarding `Cc1ccc(C)c(OCCCC(C)(C)C(=O)O)c1` [Gemfibrozil, reference compound], the “WB conc. factor (lab / field) D 32 High” value in series [1] (setting [9]) is listed as 2.57.
In the case of `CN(C)C(=N)N=C(N)N` [Metformin, reference compound], in series [1] (setting [9]), the “WB conc. factor (lab / field) D 32 High” value was found to be 1.42. Besides, in series [1] (setting [10]), the “WB conc. factor (lab / field) D 32 Low” value is on record as 0.16. Besides, the “Growth in male fathead minnow” value in series [3] is “reduced growth”.
As to `Clc1ccc(COC(Cn2ccnc2)c2ccc(Cl)cc2Cl)c(Cl)c1` (centres unmarked) [Miconazole, reference compound], the “WB conc. factor (lab / field) D 32 High” value in series [1] (setting [9]) came to 7.39. In addition, the “WB conc. factor (lab / field) D 32 Low” value in series [1] (setting [10]) is 0.64.
Turning to `NCCC(Oc1ccc(C(F)(F)F)cc1)c1ccccc1` (centres unmarked) [Norfluoxetine], the “WB conc. factor (lab / field) D 32 High” value in series [1] (setting [9]) is reported as 5.59. In addition, the “WB conc. factor (lab / field) D 32 Low” value in series [1] (setting [10]) was 0.31. For the same compound, the “WB conc. factor (lab / field) D 32 Med” value in series [1] (setting [11]) was 0.38. In series [1] (day 50, medium dose), the “WB conc. factor (lab / field) D 50 Med” value worked out at 0.52.
For the compound `O=C(O)C(F)(F)C(F)(F)C(F)(F)C(F)(F)C(F)(F)C(F)(F)C(F)(F)C(F)(F)C(F)(F)F` [PFDA], the “WB conc. factor (lab / field) D 32 High” value in series [1] (setting [9]) is recorded as 39.9. For the same compound, in series [1] (setting [10]), the “WB conc. factor (lab / field) D 32 Low” value is 1.68. In series [1] (setting [11]), the “WB conc. factor (lab / field) D 32 Med” value was 2.76. For the same compound, in series [1], the “Whole-body conc D 50 High” value came out at 14.4 ng/g and the “Whole-body conc D 50 Med” value is reported as 2.05 ng/g. Besides, the “WB conc. factor (lab / field) D 50 Med” value in series [1] (day 50, medium dose) is on record as 2.63. In addition, the “Half life High” value in series [4] came out at 16.2 days. Besides, the “Half life Med” value in series [4] (medium dose) came out at 262 days.
As to `O=C(O)C(F)(F)C(F)(F)C(F)(F)C(F)(F)C(F)(F)F` [PFHxA], in series [1], the “Whole-body conc D 50 High” value turned out to be 0.82 ng/g and the “Whole-body conc D 50 Med” value was determined as 0.49 ng/g.
Consider `NS(=O)(=O)C(F)(F)C(F)(F)C(F)(F)C(F)(F)C(F)(F)C(F)(F)C(F)(F)C(F)(F)F` [PFOSA], for which, in series [1] (setting [12]), the “WB conc. factor (lab / field) D 32 High” value was determined as 85.9, the “WB conc. factor (lab / field) D 32 Low” value stood at 2.74 and the “WB conc. factor (lab / field) D 32 Med” value came to 4.15. In addition, in series [1] (setting [13]), the “WB conc. factor (lab / field) D 50 High” value was found to be 55.9 and the “WB conc. factor (lab / field) D 50 Med” value came to 7.0. The “Uncoupling of mitochondrial respiration” value in series [5] was “known uncouplers of mitochondrial respiration”. In series [6], the “Max WB conc field Scul” value is given as 2.2 ng/g.
As to `O=S(=O)(O)C(F)(F)C(F)(F)C(F)(F)C(F)(F)C(F)(F)C(F)(F)C(F)(F)C(F)(F)F` [PFOS], the “WB conc. factor (lab / field) D 32 High” value in series [1] (setting [9]) is on record as 4.01. The “WB conc. factor (lab / field) D 32 Low” value in series [1] (setting [10]) worked out at 0.17. In addition, the “WB conc. factor (lab / field) D 32 Med” value in series [1] (setting [11]) amounted to 0.22. For the same compound, in series [1], the “Whole-body conc D 50 High” value came to 123 ng/g and the “Whole-body conc D 50 Med” value was 11.6 ng/g. The “WB conc. factor (lab / field) D 50 Med” value in series [1] (day 50, medium dose) worked out at 0.34. Moreover, in series [4], the “Half life High” value came to 134 days.
Regarding `CN[C@H]1CC[C@@H](c2ccc(Cl)c(Cl)c2)c2ccccc21` [Sertraline, reference compound], the “WB conc. factor (lab / field) D 32 High” value in series [1] (setting [9]) was found to be 0.53.
For the compound `O=C(Nc1ccc(Cl)cc1)Nc1ccc(Cl)c(Cl)c1` [Triclocarban], in series [1] (setting [9]), the “WB conc. factor (lab / field) D 32 High” value stood at 1.34.
Take `Oc1cc(Cl)ccc1Oc1ccc(Cl)cc1Cl` [Triclosan]: the “Uncoupling of mitochondrial respiration” value in series [5] was “known uncouplers of mitochondrial respiration”.
As to `CC1(C)C(C=C(Cl)Cl)C1C(=O)OC(C#N)c1cccc(Oc2ccccc2)c1` (centres unmarked) [cypermethrin], in series [7], the “Plasma enzymes ALT, AMYL, and acid phosphatase” value was “large reductions”.
With nonylphenol, the “Growth in rainbow trout” value in series [8] was “inhibited growth”.
As to nonylphenol diethoxylate, the “Growth in rainbow trout” value in series [8] is “inhibited growth”.
As for octylphenol, the “Growth in rainbow trout” value in series [8] is on record as “inhibited growth”.
